Patent US9556132B2, “Tetrazole derivatives and their use as potassium channel modulators” (SANIONA A/S, priority 2012, dated 2017)

Molecular target: human IK (Homo sapiens (Human), UniProt O15554)
Experiment: Inhibition of IK channels expressed in HEK293 cells, thallium (I) sensitive FLIPR assay
Type: cell-based
Conditions: HEK293 cells over-expressing human IK; Tl+-sensitive BTC fluorescence (FLIPR); inhibition of activity induced by Ca2+-ionophore A23187
Method: Following experiment determines the ability of a test compound to inhibit the activity of IK channels heterologously expressed in human HEK293 cells, and was used as the primary screen. The ability is determined as per cent inhibition of the activity induced by addition of the Ca^2+-ionophore A23187 (considered a maximum response). The activity is determined using a standard thallium (I) sensitive assay, e.g. using a fluorometric method in a Fluorescent Image Plate Reader (FLIPR) as described below in more detail.
Full concentration/response curves are generated and IC50 values are calculated based on the degree of inhibition of the maximum response. IC50 values (Inhibitory Concentration) represent the concentration of the test substance at which 50% of the maximum channel activity is inhibited.
Human HEK293 cells over-expressing human IK are grown in culture medium (DMEM supplemented with 10% foetal bovine serum), in polystyrene culture flasks ([…]) in a humidified atmosphere of 5% CO2 in air, at 37° C. Cell confluence should be 80-90% on day of plating. Cells are rinsed with 4 mL of PBS (phosphate buffered saline) and incubated 2 min with 1 mL of Trypsin-EDTA. After addition of 25 mL of culture medium cells are re-suspended by trituration with a 25 mL pipette.
The cells are seeded at a density of ˜3×10^6 cells/mL (25 μL/well) in black-walled, clear bottom, 384-well plates pre-treated with 0.01 g/L poly-D-lysin (20 μL/well for ≧30 min). Plated cells were allowed to proliferate for 24 h before loading with dye.
BTC-AM ([…], Invitrogen) is added 25.5 μl DMSO. The BTC-AM stock solution (2 mM) is diluted to a final concentration of 2 μM in […] assay buffer (in mM: 140 Na^+-gluconate, 2.5 K^+-gluconate, 6 Ca2^+-gluconate, 1 Mg^2+ gluconate, 5 glucose, 10 HEPES, pH 7.3) containing 2 μM ouabain, 2 mM amaranth and 1 mM tartrazine.
The culture medium is aspirated from the wells, and 25 μl of the BTC-AM loading solution are added to each well. The cells are incubated at 37° C. for 60 min.
After the loading period, the Tl^+-sensitive BTC fluorescence signal is measured over time using a FLIPR.
• Temperature: Room temp. • First addition: 12 μl test or control compound after 15 sec at a rate of 30 μL/sec and starting height of 20 μL • Second addition: 12 μL stimulus buffer (Cl^− free assay buffer supplemented with 1 mM Tl2SO4, 5 μM A23187 as well as the quenchers amaranth (2 mM) and tartrazine (1 mM)) is added after an additional 3 minutes at a rate of 30 μL/sec and starting height of 30 μL • Reading intervals: First sequence—3 sec×5, 2 sec×24 and 5 sec×25 • Second sequence—1 sec×5, 2 sec×24 and 5 sec×36
Addition plates (compound plate and stimulus plate) are placed in positions 2 and 3, respectively. Cell plates are placed in position 1 and run using the “IK blocker (EtOH wash, two additions)” program. FLIPR will then take the appropriate measurements in accordance with the interval settings above. Fluorescence obtained after stimulation is corrected for the mean basal fluorescence (in Cl^− free assay buffer).
Full concentration/response curves are generated and IC50 values (“Inhibitory Concentration”, i.e. the concentration of the test substance at which 50% of the maximum channel activity is inhibited) are calculated. The responses are calculated based on peak values.

| IC50 [nM] | Structure (SMILES) |
| --- | --- |
| 550 | Fc1ccccc1-n1nnnc1-c1ccccc1-c1ccccc1Br [Compound 23, 5-[2-(2-Bromophenyl)phenyl]-1-(2-fluorophenyl)-1H-1,2,3,4-tetrazole] |
| 510 | Cc1ccccc1-c1ccccc1-c1nnnn1-c1ccccc1F [Compound 19, 1-(2-Fluorophenyl)-5-[2-(2-methylphenyl)phenyl]-1H-1,2,3,4-tetrazole] |
| 110 | N#Cc1ccccc1-c1ccccc1-c1nnnn1-c1ccccc1F [Compound 31, 2-{2-[1-(2-Fluorophenyl)-1H-1,2,3,4-tetrazol-5-yl]phenyl}benzonitrile] |
| 770 | CC(C)Oc1ccccc1-c1ccccc1-c1nnnn1-c1ccccc1F [Compound 9, 1-(2-Fluorophenyl)-5-{2-[2-(propan-2-yloxy)phenyl]phenyl}-1H-1,2,3,4-tetrazole] |
